Measured values from patent publication US5578622A, “Isothiazole derivatives and their uses” (Asamura Patent Office, priority 1994, dated 1996).

How the values were obtained:
[1] = test system: Candida albicans IFO 1270; assay: In vitro antimycotic activity on Candida albicans; type: cell-based; conditions: IFO1270, 10 (ppm), SGB, 37° C., 48 hours, turbidity at 650 nm, read-out: Antimycotic activity (growth inhibitory rate), C.albicans
Method: 3-1 In vitro antimycotic activity on Candida albicans
Candida albicans IFO 1270 pre-cultured on a Sabouraud's glucose agar (SGA) plate medium at 37° C. […] was suspended in a sterilized physiological salt solution. The number of fungi in the resulting suspension was counted with a globulimeter, and adjusted so as to be 1×10^7 cell/ml with a sterilized physiological salt solution. This solution was used as an inoculum solution. Thereafter, 0.1 ml of this solution and 0.1 ml of a dimethyl sulfoxide (DMSO) solution of the test compound were added to 9.8 ml of Sabouraud's glucose broth (SGB), and shake-cultured at 37° C. for 48 hours. After culture, the medium turbidity was measured at 650 nm, and the growth-inhibitory rate of the fungus was calculated according to the following equation.
Growth inhibitory rate (%)=(1-W/Y)×100
Y: Medium turbidity of DMSO control group
W: Medium turbidity of test compound group
From this inhibitory rate, the antimycotic activity was shown by the symbols A to D. The test results of the test compounds are shown in Table 4.

[2] = test system: Aspergillus fumigatus TIMM 0063; assay: In vitro antimycotic activity on Aspergillus fumigatus; type: cell-based; conditions: TIMM0063, 10 (ppm), Casitone agar, 37° C., 48 hours, read-out: Antimycotic activity (growth inhibitory rate), A.fumigatus
Method: 3-2 In vitro antimycotic activity on Aspergillus fumigatus.
To Aspergillus fumigatus TIMM 0063 precultured at 37° C. for 48 hours on a potato dextrose agar (PDA) slant medium was added a sterilized physiological salt solution containing 0.1%(W/V) Tween 80. After conidia were made free from the solution, the solution was filtered through a sterilized two-sheet gauze to remove the mycelium mass. The number of the conidia in the resulting suspension was counted with a globulimeter and adjusted so as to be 1×10^5 conidia/ml with a sterilized physiological salt solution containing 0.1%(W/V) Tween 80. This solution was used as an inoculum solution. Casitone agar plate medium containing the DMSO solution of the test compound in a rate of 1% (V/V) was inoculated with the inoculum solution at four places thereof with a microplanter, and cultured with the medium allowed to stand at 37° C. for 48 hours. After culture, the diameter of the mycelium disks cultivated at the four inoculated parts was measured, and its mean value was obtained. The growth inhibitory rate was calculated according to the following equation, and the antimycotic activity was shown in the same manner as in Test Example 3-1.
Growth inhibitory rate (%)=(1-W'/Y')×100
Y': Diameter of mycelium disk of DMSO control group
W': Diameter of mycelium disk of test compound group

[3] = test system: Trichophyton mentagrophytes IFO 5810; assay: In vitro antimicrobial activity on Trichophyton mentagrophytes; type: cell-based; parameters: key: A: Fungus is not observed at all with the naked eye.; B: Presence of fungus is slightly observed on shaking the test tube.; C: Fungus of about less than one-fourth that of the DMSO control group is observed with the naked eye.; Fungus of about less than half that of the DMSO control group is observed with the naked eye; conditions: 10 (ppm); SGB, 27° C., 7 days
Method: 3-3 In vitro antimicrobial activity on Trichophyton mentagrophytes To Trichophyton mentagrophytes IFO 5810 precultured at 27° C. for 2 to 3 weeks on a Sabouraud's glucose agar (SGA) slant medium was added a sterilized physiological salt solution containing 0.1% (W/V) Tween 80. After conidia were made free from the solution, the solution was filtered through a sterilized two-sheet gauze to remove the mycelium mass. The number of the conidia in the resulting suspension was counted with a globulimeter and adjusted so as to be 1×10^6 conidia/ml with a sterilized physiological salt solution containing 0.1%(W/V) Tween 80. This solution was used as an inoculum solution. Thereafter, 0.1 ml of this solution and 0.1 ml of the dimethyl sulfoxide (DMSO) solution of the test compound were added to 9.8 ml of Sabouraud's glucose broth (SGB), and shake-cultured at 27° C. for 7 days.

[4] = test system: Tyromyces palustris; assay: Test for wood rotting-preventing effect (mycelium growth inhibition on malt extract agar); type: cell-based; conditions: 28° C.±2° C., 2 to 10 days, read-out: Rotting preventing effect (mycelium growth-inhibitory rate), TYP
Method: (§1) The following fungi were cultured in agar media, respectively, and mycelial disks on the media were stamped out together with the agar using a cork borer of 4 mm in diameter. The resulting mycelial disks on agar were used as an inoculum. Each test compound of 50 ppm was added to a malt extract agar medium and added in parts to Petri dishes. The above prepared inoculum was put on the Petri dishes and cultured at 28° C.±2° C. Two to ten days after inoculation, the diameter of the mycelial disk of each fungus was measured, and the mycelium growth-inhibitory rate was obtained according to the following equation. [formula] The mycelium growth-inhibitory rate (%) is indicated by the following symbols as a fungicidal effect on each fungus, and the results are shown in Table 2. | TYP: Tyromyces palustris

[5] = test system: Trichoderma viride; assay: as above; type: cell-based; conditions: 28° C.±2° C., 2 to 10 days, read-out: Rotting preventing effect (mycelium growth-inhibitory rate), TRV
Method: as §1, with “TRV: Trichoderma viride” for “TYP: Tyromyces palustris”

[6] = test system: Aspergillus niger; assay: as above; type: cell-based; conditions: 28° C.±2° C., 2 to 10 days, read-out: Rotting preventing effect (mycelium growth-inhibitory rate), ASN
Method: as §1, with “ASN: Aspergillus niger” for “TYP: Tyromyces palustris”

[7] = test system: Rhizopus nigricans; assay: as above; type: cell-based; conditions: Rhizopus stolonifer, 28° C.±2° C., 2 to 10 days, read-out: Rotting preventing effect (mycelium growth-inhibitory rate), RHN
Method: as §1, with “RHN: Rhizopus nigricans” for “TYP: Tyromyces palustris”

[8] = test system: Gibberella fujikuroi ("Bakanae" disease of rice); assay: Test for rice seed-disinfecting effect; type: in vivo; conditions: Fusarium fujikuroi, 504 h, seed immersion 25° C. 24 hours, three weeks after treatment, read-out: Controlling effect (control of disease), "Bakanae" disease of rice
Method: 2-1 Test for rice seed-disinfecting effect
Unhulled rice infected with Gibberella fujikuroi ("Bakanae" disease of rice) was immersed in a test compound adjusted to 1000 ppm at 25° C. for 24 hours. Water was lightly swished off the seed, which was then sowed and germinated for two days. Three weeks after treatment with the solution containing the compound, the rate of the infected seedlings was examined, and the control of disease was calculated by comparison with that of the untreated plot. The control of disease was shown as a controlling effect on the basis of the following standard.

[9] = test system: Pseudoperonospora cubensis; assay: Test for controlling effect on downy mildew of cucumber; type: in vivo; conditions: 168 h, 200 ppm spray, one day before inoculation, cucumber 2-leaf stage, read-out: Controlling effect (control of disease), Downy mildew of cucumber
Method: 2-2 Test for controlling effect on downy mildew of cucumber (Pseudoperonospora cubensis) A test compound adjusted to 200 ppm was sprayed onto cucumber at the 2-leaf stage cultivated in pots. After one day, the cucumber was inoculated by spraying the zoospore suspension of Pseudoperonospora cubensis. After inoculation, the cucumber was placed in a 25° C.-humid room for 1 day and then in a greenhouse for 6 days. Thus, the cucumber was made to be infected with downy mildew. The control of disease of the test compound is calculated by comparing the degree of infection of each leaf with that in the untreated plot. The control of disease is shown as a controlling effect in the same manner as in Test Example 2-1.

[10] = test system: Rhizoctonia solani; assay: Test for controlling effect on sheath blight of rice; type: in vivo; conditions: 120 h, 200 ppm spray, 24 hours after inoculation, rice 4-leaf stage, five days after inoculation, read-out: Controlling effect (control of disease), Sheath blight of rice
Method: 2-3 Test for controlling effect on sheath blight of rice (Rhizoctonia solani) Rice seedlings at the 4-leaf stage were inoculated with the mycelium of sheath blight of rice (Rhizoctonia solani). After 24 hours, a test medicine solution adjusted to 200 ppm was sprayed onto the seedlings. After air-drying, the seedlings were placed in a humid room for 24 hours where the temperature was kept at 28° C. and humidity was kept at 98%. Thereafter, the seedlings were transferred to a greenhouse, and five days after inoculation, the degree of infected area was examined. The control of disease was calculated by comparison with that in the untreated plot. The control of disease is shown as a controlling effect in the same manner as in Test Example 2-1.

Compound | inhibition of growth at 10 µg/mL [1] | inhibition of growth at 10 µg/mL [2] | Antimycotic activity (degree of growth, naked eye), T.mentagrophytes [3] | inhibition at 50 ppm [4] | inhibition at 50 ppm [5] | inhibition at 50 ppm [6] | inhibition at 50 ppm [7] | pest or weed control at 1000 ppm [8] | pest or weed control at 200 ppm [9] | pest or weed control at 200 ppm [10]
CC(OCC#CI)Oc1nsc(N(C)C)c1C#N (stereo not shown) [Compound 123] | 100% | 100% | A | – | – | – | – | – | – | –
CC(C)Oc1nsc(OCCC#CI)c1C#N [Compound 83] | 100% | 100% | A | – | – | – | – | – | – | –
CC(C)COc1snc(OCC#CI)c1C#N [Compound 29] | 100% | 100% | A | – | – | – | – | – | – | –
CCSc1snc(OCOC(C)(C)C#CI)c1C#N [Compound 101] | 100% | 100% | A | – | – | – | – | – | – | –
CC(C)Oc1nsc(SCOCC#CI)c1C#N [Compound 56] | 100% | 100% | A | – | – | – | – | – | – | –
N#Cc1c(OCOCC#CI)nsc1SCOCC#CI [Compound 141] | 100% | 100% | A | – | – | – | – | – | – | –
CC(=O)Oc1nsc(SCOCC#CI)c1C#N [Compound 67] | – | – | – | 95 to 100% | 80 to 94% | 80 to 94% | 95 to 100% | 80 to 94% | 80 to 94% | 95 to 100%
CCS(=O)(=O)c1snc(OCOCC#CI)c1C#N [Compound 94] | – | – | – | 95 to 100% | 95 to 100% | 95 to 100% | 95 to 100% | 95 to 100% | 95 to 100% | 95 to 100%
COc1nsc(SCOCC#CI)c1C#N [Compound 53, 3-methoxy-4-cyano-5-(3-iodo-2-propynyloxymethylthio)isothiazole] | – | – | – | 95 to 100% | 95 to 100% | 95 to 100% | 80 to 94% | 95 to 100% | 95 to 100% | 95 to 100%
CC(C)Sc1snc(OCOCC#CI)c1C#N [Compound 88] | 100% | 100% | A | – | – | – | – | – | – | –
CC(C)(C#CI)OCOc1nsc(S(C)(=O)=O)c1C#N [Compound 103] | – | – | – | 95 to 100% | 95 to 100% | 95 to 100% | 80 to 94% | 95 to 100% | 95 to 100% | 95 to 100%
COC(=O)Sc1snc(OCC#CI)c1C#N [Compound 20] | – | – | – | 95 to 100% | 95 to 100% | 80 to 94% | 60 to 79% | 80 to 94% | 95 to 100% | 60 to 79%
CC(OCC#CI)Sc1snc(OC(F)F)c1C#N (stereo not shown) [Compound 127] | – | – | – | 95 to 100% | 95 to 100% | 95 to 100% | 95 to 100% | 95 to 100% | 95 to 100% | 95 to 100%
CCS(=O)(=O)c1snc(OCCC#CI)c1C#N [Compound 78] | – | – | – | 95 to 100% | 95 to 100% | 95 to 100% | 95 to 100% | 95 to 100% | 80 to 94% | 95 to 100%
